Literature values in patent publication US20070026087A1 (priority 2003, published 2007).
Like-named read-outs stand apart in the source and are kept apart here.

What was measured:
[1] = test system: HSV (herpes simplex virus)-1; details: Thurman & Gerba 1989
[2] = test system: HSV (herpes simplex virus)-2; details: Thurman & Gerba 1989
Vacciniavirus = details: Thurman & Gerba 1989
Adenovirus = details: Thurman & Gerba 1989
HVJ = details: Thurman & Gerba 1989
[3] = reported, effective only temporarily

## CCO [ethanol]
SARS coronavirus; [3]
  efficacy as disinfectant against SARS coronavirus: effective

## O=[N+]([O-])[O-].[Ag+] [silver nitrate]
[1]
  efficacy against HSV-1: effective
[2]
  efficacy against HSV-2: effective
Vacciniavirus
  efficacy against Vacciniavirus: not effective
Adenovirus
  efficacy against Adenovirus: not effective
VSV
  efficacy against VSV: not effective
Poliovirus
  efficacy against Poliovirus: not effective
HVJ
  efficacy against HVJ: not effective

## CC(=O)OO [peracetic acid]
SARS coronavirus
  efficacy as disinfectant against SARS coronavirus: effective

## O=CCCCC=O [glutaraldehyde]
SARS coronavirus; [3]
  efficacy as disinfectant against SARS coronavirus: effective

## C1CO1 [ethylene oxide gas, ethylene oxide]
SARS coronavirus; [3]
  efficacy as disinfectant against SARS coronavirus: effective

## OCl [sodium hypochlorite]
SARS coronavirus; [3]
  efficacy as disinfectant against SARS coronavirus: effective
